# “And” between values parts separate entries of the source, which are not always exact repeats. Equal entries are not always repeated. Structures can show the parent of a compound that is named as a salt. Where two headings read alike, the source gives them in different places.
# Legend:
# [1] = system: LPS-induced microglia activation; test: Image-based assay of LPS-induced microglia activation (HTS and dose response); assay type: cell-based, rat; details: for IC50 / inhibition at 10 µM: Rattus norvegicus, Microglia; for inhibition at 10 µM: read-out: LPS % inhibition
# [2] = system: fibrin-induced microglia activation; test: Image-based assay of fibrin-induced microglia activation (HTS and dose response); assay type: cell-based, rat; details: for IC50 / inhibition at 10 µM: Rattus norvegicus, Microglia; for inhibition at 10 µM: read-out: Fibrin % inhibition
# [3] = system: fibrin- and LPS-induced microglia activation; test: cells; assay type: cell-based, rat; details: for inhibition at 10 µM: Rattus norvegicus, Microglia
# primary rat microglia [4] = test: Cell toxicity (dead cells, size <150 μm2) in LPS assay
# primary rat microglia [5] = test: Cell toxicity (dead cells, size <150 μm2) in coated fibrin (cFib) assay; details: primary microglia HTS;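 also: share of dead cells sized under 150 µm2 at 10 µM in fibrin-stimulated microglia HTS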
# primary rat microglia [6] = system: primary rat microglia
# [7] = 10 μM, fibrin assay, cell size <150 μm^2 as marker of toxicity
# [8] = primary microglia HTS, 10 μM, LPS assay, cell size <150 μm^2 as marker of toxicity
# [9] = quadrant by fibrin and LPS inhibition in HTS of 1907 compounds
# [10] = fibrin stimulation, decreased size (<150 μm^2) as marker of toxicity
# [11] = primary microglia HTS, LPS stimulation, decreased size (<150 μm^2) as marker of toxicity
# [12] = primary microglia HTS, 10 μM, LPS-stimulated, cell size >800 μm^2 as marker of activation
# [13] = primary microglia HTS, 10 μM, fibrin-stimulated, cell size >800 μm^2 as marker of activation
# [14] = HTS of 1907 compounds, quadrant by fibrin and LPS inhibition
# [15] = fibrin stimulation, toxicity = cell size <150 μm2
# [16] = primary microglia HTS, LPS stimulation, toxicity = cell size <150 μm2
# [17] = primary microglia HTS, LPS stimulation, activation = cell size >800 μm2
# [18] = primary microglia HTS, fibrin stimulation, activation = cell size >800 μm2
# [19] = primary microglia HTS, LPS stimulation, compounds at 10 μM
# [20] = primary microglia HTS, fibrin stimulation, compounds at 10 μM
# [21] = classification by fibrin and LPS inhibition, HTS at 10 μM
# [22] = fibrin assay, dead cells (size <150 μm2), compounds at 10 μM
# [23] = quadrant by fibrin and LPS inhibition, HTS at 10 μM
# [24] = fibrin assay, dead cells (size <150 μm2)
# [25] = primary microglia HTS, fibrin stimulation, cell size >800 μm2 as marker of activation
# [26] = classification by fibrin and LPS inhibition in HTS
# [27] = fibrin stimulation, cell size <150 μm2 as marker of toxicity
structure (smiles),measurement,setting,value
CN(C)[C@@H]1C(=O)C(C(N)=O)=C(O)[C@@]2(O)C(=O)C3=C(O)c4c(O)ccc(Cl)c4[C@@](C)(O)[C@H]3C[C@@H]12,LPS % inhibition,"[1]; primary HTS, 10 μM, LPS-stimulated primary microglia",23%
same,Fibrin % inhibition,"[2]; primary HTS, 10 μM, fibrin-stimulated primary microglia",27%
same,Quadrant (FIG. 5b),"[3]; primary HTS, 10 μM",Q4
same,LPS % cell toxicity,"primary rat microglia [4]; primary HTS, 10 μM, LPS assay, dead cells size <150 μm2",0%
COc1cccc(C2(O)CCCCC2CN(C)C)c1 (stereo not shown) [Tramadol Hydrochloride],Fibrin % cell toxicity,primary rat microglia [5]; [7],0%
same,LPS % cell toxicity,primary rat microglia [4]; [8],0%
C[C@H](N)[C@H](O)c1cccc(O)c1 [Metaraminol],Quadrant (FIG. 5b),[3]; [9],Q4
same,Fibrin % cell toxicity,primary rat microglia [5]; [10],0% and 1%
same,LPS % cell toxicity,primary rat microglia [4]; [11],1%
CCNC1(c2cccs2)CCCCC1=O.Cl (stereo not shown) [Tiletamine Hydrochloride],LPS % inhibition,[1]; [12],22%
same,Fibrin % inhibition,[2]; [13],8%
same,Quadrant (FIG. 5b),[3]; [14],Q4
same,LPS % cell toxicity,primary rat microglia [4]; [8],0%
C[C@@H](O)[C@H]1C(=O)N2C(C(=O)O)=C(S[C@@H]3CN[C@H](C(=O)N(C)C)C3)[C@H](C)[C@H]12 [Meropenem],Quadrant (FIG. 5b),[3]; [9],Q4
same,Fibrin % cell toxicity,primary rat microglia [5]; [10],1%
same,LPS % cell toxicity,primary rat microglia [4]; [11],0%
CC(C)N1CCN(c2ccc(OCC3COC(Cn4cncn4)(c4ccc(Cl)cc4Cl)O3)cc2)CC1 (stereo not shown) [Terconazole],Quadrant (FIG. 5b),[3]; [14],Q4
same,Fibrin % cell toxicity,primary rat microglia [5]; [7],1%
same,LPS % cell toxicity,primary rat microglia [4]; [8],0%
"CCN(CC)C(=O)C1(c2ccccc2)CC1CN (stereo not shown) [Milnacipran hydrochloride, reference compound]",IC50,"[1]; 48 h, Table 1, dose response 0.001-20 μM, triplicates, primary rat microglia, 48 h, read-out: LPS IC50",20 µM
same,inhibition at 10 µM,"[1]; 48 h, primary microglia HTS, LPS stimulation, increased cell size (>800 μm^2) as marker of activation",31%
same,IC50,"[1]; LPS-induced microglia activation, dose response, read-out: LPS IC50 (uM) (Suppl. Table 7)",20 µM
same,IC50,"[1]; Table 3, read-out: LPS IC50 (uM) (Suppl. Table 7)",20 µM
same,IC50,"[1]; dose response, LPS-induced microglia activation, read-out: LPS IC50",20 µM
same,IC50,"[2]; 48 h, Table 1, dose response 0.001-20 μM, triplicates, primary rat microglia, 48 h, read-out: Fibrin IC50",8 µM
same,IC50,"[2]; Table 3, read-out: Fibrin IC50 (uM) (Suppl. Table 7)",8 µM
same,IC50,"[2]; dose response, fibrin-induced microglia activation, read-out: Fibrin IC50",8 µM
same,IC50,"[2]; fibrin-induced microglia activation, dose response, read-out: Fibrin IC50 (uM) (Suppl. Table 7)",8 µM
same,inhibition at 10 µM,"[2]; primary microglia HTS, fibrin stimulation, increased cell size (>800 μm^2) as marker of activation",72%
same,Quadrant (FIG. 5b),[3]; [14],Q3
same,inhibition at 10 µM,"[3]; Table 3, read-out: Cherry-picked Hit (Suppl. Table 7)",> 50%
same,inhibition at 10 µM,"[3]; HTS hit classification, read-out: Hit",> 50%
same,Quadrant (FIG. 5b),"[3]; Table 1, screen at 10 μM",Q3
same,Quadrant (FIG. 5b),"[3]; Table 3, screen at 10 μM",Q3
same,Quadrant (FIG. 5b),[3]; [9],Q3
same,LPS % cell toxicity,primary rat microglia [4]; [11],1%
OCCOCCN1CCN(C(c2ccccc2)c2ccc(Cl)cc2)CC1 (stereo not shown) [Hydroxyzine],Quadrant (FIG. 5b),[3]; [9],Q4
same,Fibrin % cell toxicity,primary rat microglia [5]; [15],0% and 1%
same,LPS % cell toxicity,primary rat microglia [4]; [16],0%
O=[N+]([O-])O[C@H]1CO[C@H]2[C@@H]1OC[C@H]2O[N+](=O)[O-] [Isosorbide Dinitrate],Fibrin % cell toxicity,primary rat microglia [5]; [15],0%
same,LPS % cell toxicity,primary rat microglia [4]; [16],0%
CC(C)(C)NC(=O)[C@H]1CC[C@H]2[C@@H]3CC[C@H]4NC(=O)C=C[C@]4(C)[C@H]3CC[C@]12C [Finasteride],Quadrant (FIG. 5b),[3]; [9],Q4
same,Fibrin % cell toxicity,primary rat microglia [5]; [15],1% and 0%
same,LPS % cell toxicity,primary rat microglia [4]; [16],1% and 0%
CC[C@H]1OC(=O)C[C@@H](O)[C@H](C)[C@@H](O[C@@H]2O[C@H](C)[C@@H](O[C@H]3C[C@@](C)(O)[C@@H](O)[C@H](C)O3)[C@H](N(C)C)[C@H]2O)[C@@H](CC=O)C[C@@H](C)C(=O)/C=C/C(C)=C/[C@@H]1CO[C@@H]1O[C@H](C)[C@@H](O)[C@@H](OC)[C@H]1OC.O=C(O)C(O)C(O)C(=O)O [Tylosin Tartrate],LPS % inhibition,[1]; [12],11%
same,Fibrin % inhibition,[2]; [13],9%
same,Quadrant (FIG. 5b),[3]; [14],Q4
same,LPS % cell toxicity,primary rat microglia [4]; [8],0%
COc1cccc(C2(O)CCCCC2CN(C)C)c1 (stereo not shown) [Tramadol],Quadrant (FIG. 5b),[3]; [14],Q4
same,Fibrin % cell toxicity,primary rat microglia [5]; [7],1%
same,LPS % cell toxicity,primary rat microglia [4]; [8],0%
CC(Oc1c(Cl)cccc1Cl)C1=NCCN1 (stereo not shown) [Lofexidine],Quadrant (FIG. 5b),[3]; [9],Q4
same,Fibrin % cell toxicity,primary rat microglia [5]; [15],0% and 1%
same,LPS % cell toxicity,primary rat microglia [4]; [16],0%
CCCCCN(C)CCC(O)(P(=O)(O)O)P(=O)(O)O [Ibandronate],Quadrant (FIG. 5b),[3]; [9],Q4
same,Fibrin % cell toxicity,primary rat microglia [5]; [15],0% and 1%
same,LPS % cell toxicity,primary rat microglia [4]; [16],0%
C[C@@H]1[C@H](O)[C@@H](C)/C=C/C=C/CC/C=C/C=C/C=C/C=C/C(O[C@H]2O[C@H](C)[C@@H](O)[C@H](N)[C@@H]2O)CC2O[C@](O)(CC(O)C(O)CCC(O)CC(O)CC(O)CC(=O)O[C@H]1C)CC(O)C2C(=O)O (stereo partly shown) [Nystatin],Quadrant (FIG. 5b),[3]; [9],Q4
same,Fibrin % cell toxicity,primary rat microglia [5]; [10],0% and 1%
same,LPS % cell toxicity,primary rat microglia [4]; [11],1%
C[C@]1(Cn2ccnn2)[C@H](C(=O)O)N2C(=O)C[C@H]2S1(=O)=O [Tazobactam],Quadrant (FIG. 5b),[3]; [14],Q4
same,Fibrin % cell toxicity,primary rat microglia [5]; [7],1% and 0%
same,LPS % cell toxicity,primary rat microglia [4]; [8],0%
N=C(N)NC(=O)Cc1c(Cl)cccc1Cl [Guanfacine],Quadrant (FIG. 5b),[3]; [9],Q4
same,Fibrin % cell toxicity,primary rat microglia [5]; [15],1%
same,LPS % cell toxicity,primary rat microglia [4]; [16],0%
CC(=O)[C@@]1(O)CC[C@H]2[C@@H]3CCC4=CC(=O)CC[C@]4(C)[C@H]3CC[C@@]21C [Hydroxyprogesterone],LPS % inhibition,[1]; [17],33%
same,Fibrin % inhibition,[2]; [18],9%
same,Quadrant (FIG. 5b),[3]; [9],Q4
same,LPS % cell toxicity,primary rat microglia [4]; [16],1%
"Br.COc1ccc2c3c1O[C@H]1C[C@@H](O)C=C[C@@]31CCN(C)C2 [Galanthamine Hydrobromide, Galantamine]",LPS % inhibition,[1]; [17],9%
same,Fibrin % inhibition,[2]; [18],10%
same,Quadrant (FIG. 5b),[3]; [9],Q4
same,LPS % cell toxicity,primary rat microglia [4]; [16],0%
CO[C@H]1C[C@H](O[C@H]2[C@H](C)O[C@@H](O[C@@H]3/C(C)=C/C[C@@H]4C[C@@H](C[C@]5(C=C[C@H](C)[C@@H](C6CCCCC6)O5)O4)OC(=O)[C@@H]4C=C(C)[C@@H](O)[C@H]5OC/C(=C\C=C\[C@@H]3C)[C@]54O)C[C@@H]2OC)O[C@@H](C)[C@@H]1O [Doramectin],LPS % inhibition,[1]; [19],7%
same,Fibrin % inhibition,[2]; [20],−9%
same,Quadrant (FIG. 5b),[3]; [21],Q4
same,Fibrin % cell toxicity,primary rat microglia [5]; [22],1%
same,LPS % cell toxicity,primary rat microglia [6],0%
CC(=O)OCC(CCn1cnc2cnc(N)nc21)COC(C)=O [Famciclovir],inhibition at 10 µM,[1]; [19],14%
same,inhibition at 10 µM,[2]; [20],-22%
same,Quadrant (FIG. 5b),[3]; [21],Q4
same,Fibrin % cell toxicity,primary rat microglia [5]; [22],0%
same,LPS % cell toxicity,primary rat microglia [6]; rat,1%
NC(=O)NC1NC(=O)NC1=O (stereo not shown) [Allantoin],inhibition at 10 µM,[1]; [19],6%
same,inhibition at 10 µM,[2]; [20],-21%
same,Quadrant (FIG. 5b),[3]; [23],Q4
same,Fibrin % cell toxicity,primary rat microglia [5]; [24],1%
same,LPS % cell toxicity,primary rat microglia [6]; rat,0%
CC(=O)N[C@@H](CC(=O)N[C@@H](CCC(=O)O)C(=O)O)C(=O)O [Spaglumic Acid],inhibition at 10 µM,[1]; 48 h,15%
same,inhibition at 10 µM,[2]; [25],-15%
same,Quadrant (FIG. 5b),[3]; [26],Q4
same,Fibrin % cell toxicity,primary rat microglia [5]; [27],1%
same,LPS % cell toxicity,primary rat microglia [6]; rat,0%
CCC1(C)OC(=O)N(C)C1=O (stereo not shown) [Paramethadione],inhibition at 10 µM,[1]; 48 h,3%
same,inhibition at 10 µM,[2]; [25],-15%
same,Quadrant (FIG. 5b),[3]; [26],Q4
same,Fibrin % cell toxicity,primary rat microglia [5]; [27],0%
same,LPS % cell toxicity,primary rat microglia [6]; rat,0%
O=C(Oc1ccccc1C(=O)O)c1ccccc1O [Salsalate],inhibition at 10 µM,[1]; 48 h,14%
same,inhibition at 10 µM,[2]; [25],-22%
same,Quadrant (FIG. 5b),[3]; [26],Q4
same,Fibrin % cell toxicity,primary rat microglia [5]; [27],1%
same,LPS % cell toxicity,primary rat microglia [6]; rat,1%
N[C@@H](CC(=O)N1CCn2c(nnc2C(F)(F)F)C1)Cc1cc(F)c(F)cc1F [Sitagliptin],inhibition at 10 µM,[1]; 48 h,4%
same,inhibition at 10 µM,[2]; [25],-16%
same,Quadrant (FIG. 5b),[3]; [26],Q4
same,Fibrin % cell toxicity,primary rat microglia [5]; [27],0%
same,LPS % cell toxicity,primary rat microglia [6]; rat,0%
C[Se]CC[C@H](N)C(=O)O [Selenomethionine],inhibition at 10 µM,[1]; 48 h,10%
same,inhibition at 10 µM,[2]; [25],-5%
same,Quadrant (FIG. 5b),[3]; [26],Q4
same,Fibrin % cell toxicity,primary rat microglia [5]; [27],1%
same,LPS % cell toxicity,primary rat microglia [6]; rat,0%
Cc1c(N(C)C)c(=O)n(-c2ccccc2)n1C [Aminophenazone],inhibition at 10 µM,[1]; [19],20%
same,inhibition at 10 µM,[2]; [20],-41%
same,Quadrant (FIG. 5b),[3]; [23],Q4
same,Fibrin % cell toxicity,primary rat microglia [5]; [24],1%
same,LPS % cell toxicity,primary rat microglia [6]; rat,1%
OCCN1CCN(CCCN2c3ccccc3Sc3ccc(Cl)cc32)CC1 [Perphenazine],inhibition at 10 µM,[1]; 48 h,23%
same,inhibition at 10 µM,[2]; [25],23%
same,Quadrant (FIG. 5b),[3]; [26],Q4
same,Fibrin % cell toxicity,primary rat microglia [5]; [27],1%
same,LPS % cell toxicity,primary rat microglia [6]; rat,1%

# — US20210330611A1, “THERAPY FOR NEUROLOGICAL DISEASES/DISORDERS” (priority 2020, published 2021)
